The text below walks through data of PMC13091788 (NPJ Aging, 2026).

Where a name gives a salt, the structure may show the parent alone.

Series [1] is described as follows: PAMPA assay. The class given is in vitro ADME. As to conditions: read-out: permeability of reference compounds. As to the method:
To determine the passive membrane diffusion rates, Corning Gentest Pre-coated PAMPA Plate System was used. The acceptor plate was prepared by adding 200 μL of 0.1 M phosphate buffer (pH 4.5–8.6) supplemented with 5% DMSO to each well, and then 300 μL of 30 μM compounds in 0.1 M phosphate buffer (pH 4.5–8.6) with 5% DMSO were added to the donor wells. The acceptor plate was then placed on top of the donor plate and incubated at 37 °C for 4 h without agitation. After the incubation, the plates were separated and the solutions from each well of both the acceptor plate and the donor plate were transferred to 96-well plates and mixed with acetonitrile. The final concentrations of compounds in both donor and acceptor wells, as well as the concentrations of the initial donor solutions, were analyzed using liquid chromatography-tandem mass spectrometry (LC-MS/MS). The permeability of the compounds was calculated as described in a previous study. […] Two technical replicates were performed.

The test system of series [2] is rodents. To be noted: high doses (up to 100 mg/kg/day), intraperitoneal or oral gavage; cited from earlier work.
Series [3] can be described thus: Water solubility, roughly examined. The class given is physicochemical. As to conditions: roughly examined. As to the method: Finally, we compared the water solubility of the three berberrubine forms. The solubility of three compounds, the reddish-black solid (quinoid-type berberrubine), the reddish-brown solid (berberrubine acetic acid salt), and the yellow solid (berberrubine acetic acid adduct), in water was roughly examined. […] On the other hand, the reddish-brown solid dissolved in about 30 mg in 1 mL of water.

For series [4], the system named is MITOL and mitochondrial proteins in C2C12 myoblasts. The experiment in a line: Western blot of mitochondrial proteins in C2C12 myoblasts. The series is classed as cell-based, mouse. To be noted: 48 h. As to the method:
(§1) Murine myoblast C2C12 cells were used for various cellular experiments in this study. Two different sources of C2C12 cells were used depending on the experiment: C2C12 cells obtained from RIKEN BRC (RCB0987) were used for gene expression, mtDNA quantification, and mitochondrial morphology analysis; C2C12 cells from ATCC (CRL-1772) were used for OCR analysis. Cells were cultured in Dulbecco’s Modified Eagle Medium (DMEM; Sigma-Aldrich or Nacalai Tesque), supplemented with 10% FBS and 1% penicillin–streptomycin. Cells were maintained in a humidified incubator at 37°C with 5% CO2.
(§2) For cellular experiments, berberine or quinoid-type berberrubine (Q-BRB) was dissolved in DMSO, and berberrubine acetic acid adduct (AcA-BRB) was dissolved in distilled H2O. Each compound was diluted in culture medium to the indicated final concentrations.
Proteins in sample buffer were separated by SDS-PAGE and transferred to Immobilon-P PVDF membranes (IPVH00010, Millipore). Blots were probed with the indicated antibodies, and protein bands on the blot were visualized using Chemi-Lumi One L (07880-70, Nacalai Tesque) or Immobilon Western Chemiluminescent HRP Substrate (WBKLS0500, Millipore). Band images were captured using a LuminoGraph I imager (WSE-6100, ATTO). Relative band intensities were quantified using Fiji/ImageJ software. Unprocessed western blot images corresponding to the data presented in the main and supplementary figures are provided in Supplementary Figures 11–16.

The subject of series [5] is C2C12 cells. The experiment in a line: Quantification of mitochondrial DNA (mtDNA/nDNA ratio). The class given is cell-based, mouse. To be noted: C2C12, 10 μM. The procedure:
as §1
To generate mMITOL-knockout C2C12 cells, CRISPR-Cas9 vectors were constructed. Single-guide RNAs (sgRNAs) targeting the mouse MITOL gene were designed using the online tool CRISPOR (http://crispor.org). The oligonucleotide pair corresponding to the mMITOL guide RNA (gRNA sequence, 5′-[…]-3′) was annealed and ligated into the PX459 vector (48139, Addgene). C2C12 cells were transfected using Lipofectamine 3000 (Thermo Fisher Scientific), and knockout clones were selected by serial dilution.
To assess mitochondrial DNA (mtDNA) content, the mtDNA/nuclear DNA (nDNA) ratio was determined by extracting DNA from C2C12 cells using the NucleoSpin Tissue Kit (Takara Bio), followed by real-time quantitative PCR analysis with specific primer sets for mtDNA (16S rRNA or ND1) and nDNA (Hexokinase 2; HK2) (Supplementary Table 2). Real-time quantitative PCR was performed using TB Green Premix Ex Taq II (Takara Bio) and a Thermal Cycler Dice Real-Time System (Takara Bio). The analysis of mtDNA/nDNA ratios was conducted using the ΔΔCt method as previously described.

Series [6] relates to MITOL and Tom20 mRNA in C2C12 cells. The experiment in a line: qRT-PCR analysis of C2C12 cells. The class given is cell-based, mouse. As to conditions: C2C12, 5 μM or 10 μM. As to the method: as §1, §2
Total RNA was extracted from C2C12 cells using an RNA extraction kit (RNeasy Mini Kit, Qiagen). After washing with PBS, cells were collected by trypsinization and centrifugation at 500 × g for 5 min, and the pellet was lysed according to the manufacturer’s instructions. The extracted RNA was reverse-transcribed into cDNA using a reverse transcription kit (ReverTra Ace, TOYOBO). Quantitative real-time PCR was performed using a qPCR master mix (KAPA SYBR FAST qPCR Master Mix (2X) Kit, KAPABIOSYSTEMS) and a thermal cycler (StepOnePlus, Applied Biosystems). Gene expression levels were normalized to GAPDH. Primer sets used for qRT-PCR are listed in Supplementary Table 1.

As to `O=C(O)c1cc(/N=N/c2ccc(S(=O)(=O)Nc3ccccn3)cc2)ccc1O` [sulfasalazine, reference compound], the Papp at 4 h in series [1] was 0.084 ×10⁻⁶ cm/s.

Turning to `COc1ccc2cc3[n+](cc2c1O)CCc1cc2c(cc1-3)OCO2` [berberrubine chloride], in series [2], the “hepatic toxicity in rodents” value is reported as “hepatic toxicity” and the “renal toxicity in rodents” value is “renal toxicity”.

As for `Cc1cc(=O)n(-c2ccccc2)n1C` [antipyrine, reference compound], in series [1], the Papp at 4 h turned out to be 24 ×10⁻⁶ cm/s.

Compound `COc1ccc2cc3n(cc-2c1=O)CCc1cc2c(cc1-3)OCO2` [berberrubine acetic acid salt] displayed a solubility in series [3] of at least 30 mg/mL.

With `COc1ccc2cc3[n+](cc2c1OC)CCc1cc2c(cc1-3)OCO2` [berberine, reference compound], the “levels of Tom20, Mfn2, HSP60 and ATP5a proteins” value in series [4] (C2C12, 5 μM or 10 μM) is “not observed”. For the same compound, the “MITOL expression (western blot)” value in series [4] (C2C12, 10 μM, berberrubine used as quinoid-type form) is “did not increase”. Also, the “mitochondrial abundance (mtDNA 16S rRNA or ND1 / nuclear HK2)” value in series [5] was “did not induce MITOL expression or increase mitochondrial content”. In series [6], the “mRNA levels of MITOL and Tom20” value is recorded as “not observed”.

In the case of `COCCc1ccc(OCC(O)CNC(C)C)cc1` (stereo not shown) [metoprolol, reference compound], the Papp at 4 h in series [1] stood at 3 ×10⁻⁶ cm/s.
